# Data as given in patent US20250332279A1, “PHARMACEUTICAL COMPOSITION AND METHOD FOR TREATING GLIOBLASTOMAS” (National Cheng Kung University, priority 2024, published 2025).
# System: U87MG intracranial brain tumors
# Test: In vivo antitumor efficiency of gene silencing-enhanced radiotherapy
# Parameters: species or system mice
# Description: For the animal experiments, luciferase expression plasmid-transfected U87MG cell-implanted pathogen-free male NU/NU mice (5-7 weeks old, 20-25 g, from BioLASCO, Taiwan) were employed in this study. U87MG cells were cultured at 37° C. with 5% CO2 in M EM with 10% fetal bovine serum and 1% penicillin/streptomycin (Invitrogen). Mice were anaesthetized with 2% isoflurane gas and immobilized on a stereotactic frame to implant U87MG cells. A sagittal incision in the skin overlying the calvarium was created. U87MG cell implantation was performed by creating a hole in the exposed cranium 1.5 mm anterior and 2 mm lateral to the bregma using a 27G needle. A total volume of 5 μL of U87MG cell suspension (1×10^5 cell/μL) was injected at a depth of 3 mm from the brain surface over a 5 min period. The needle was withdrawn over 2 min. MRI was performed to monitor brain tumor growth for 7 days after tumor cell implantation.
# The details of the CE D procedure are as described in our previous study. Briefly, infusion cannulas were fabricated with silica tubing (Polymicro Technologies, Phoenix, AZ, USA) fused to a 0.1 mL syringe (Plastic One, Roanoke, VA, USA) with a 0.5 mm stepped-tip needle that protruded from the silica guide base. The treatment agents (VLPs or drugs) were loaded into the syringes and attached to a microinfusion pump (Bioanalytical Systems, Lafayette, IN, USA). The syringe with a silica cannula was mounted onto a stereotactic holder and then lowered through a puncture hole made in the skull to the implanted tumor. The sample solution was infused at a rate of 1 μL/min until a volume of 5 μL had been delivered, and the cannula was removed 2 min later.
# All animal experiments were approved by the Animal Committee of Chang Gung University and adhered to the experimental animal care guidelines (IACUC NO. CGU106-036). Mice were raised in a room with a thermostat at 26° C. Nu/Nu mice weighing approximately 25-30 g (5-6 weeks old) were tested to confirm the efficacy of the proposed approach. Intracranial brain tumors were induced by transplantation of U87MG cells into mouse brains. Briefly, cultured U87MG cells (5×10^5 cells/mouse) were injected over a 2 min period into the brain using a syringe, and needle withdrawal was conducted over another period of 0.5 min. A total of 50 mice were used, and the experiments were divided into five groups. In Group 1 (n=10), the mice received no further treatment after transplantation of U87MG cells, and these mice served as the control. In Group 2 (n=10), the mice received TrQβ VLPs (5 μM) via CED infusion two times (every 7 days) after 7 days of U87MG cell transplantation. […] The intracranial tumor volume in mice was measured by MR imaging. The survival time was calculated from the day of U87MG cell inoculation (0 day) to the day of death. […]
# [1] = CED infusion followed by 2Gy X-ray irradiation
structure (smiles),measurement,setting,value
N.N.O=C([O-])C1(C(=O)[O-])CCC1.[Pt+2] [carboplatin],median survival,[1],51 days
same,mice survived over 54 days,[1],10%
same,tumor volume by MRI,"Day 34, CED infusion followed by 2Gy X-ray irradiation",18.9±17.8 mm3
same,tumor volume by MRI,"Day 41, CED infusion followed by 2Gy X-ray irradiation",55.2±36.5 mm3
